Reference: PubChem BioAssay AID330 (DTP/NCI, 2004)
“And” between values parts separate entries of the source, which are not always exact repeats. Equal values may be shown once. Toxic doses and inconclusive results are not listed.

Test system: P388 leukemia ip, CD2F1 mice, survival T/C
Experiment: NCI In Vivo Anticancer Drug Screen. Data for tumor model P388 Leukemia (intraperitoneal) in CD2F1 (CDF1) mice
Settings: endpoint: median survival time, higher = longer survival
Method in brief: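 Mice carrying the transplanted tumor received test compound or vehicle. Survival was recorded in each group, and the value is the treated-group measurement divided by that of the vehicle-treated control group.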

[1] = dose: 50.0 mg/kg/injection, schedule: Q01DX009 (ip), vehicle: saline
[2] = dose: 100.0 mg/kg/injection, schedule: Q01DX009 (ip), vehicle: saline
[3] = dose: 60.0 mg/kg/injection, schedule: Q01DX005 (ip), vehicle: Klucel (hydroxypropylcellulose) (HPC)
[4] = dose: 120.0 mg/kg/injection, schedule: Q01DX005 (ip), vehicle: Klucel (hydroxypropylcellulose) (HPC)
[5] = dose: 240.0 mg/kg/injection, schedule: Q01DX005 (ip), vehicle: Klucel (hydroxypropylcellulose) (HPC)
[6] = dose: 60.0 mg/kg/injection, schedule: Q01DX005 (ip), vehicle: saline with Tween-80
[7] = dose: 120.0 mg/kg/injection, schedule: Q01DX005 (ip), vehicle: saline with Tween-80
[8] = dose: 240.0 mg/kg/injection, schedule: Q01DX005 (ip), vehicle: saline with Tween-80
[9] = dose: 50.0 mg/kg/injection, schedule: Q01DX009 (ip), vehicle: Klucel (hydroxypropylcellulose) (HPC)
[10] = dose: 100.0 mg/kg/injection, schedule: Q01DX009 (ip), vehicle: Klucel (hydroxypropylcellulose) (HPC)

Cc1ccc2c(/C=C/c3ccc(N(C)C)cc3)ccnc2c1C
T/C (dose: 12.5 mg/kg/injection, schedule: Q01DX009 (ip), vehicle: saline with Tween-80): 123 % of control | T/C (dose: 50.0 mg/kg/injection, schedule: Q01DX009 (ip), vehicle: saline with Tween-80): 150 % of control | T/C (dose: 100.0 mg/kg/injection, schedule: Q01DX009 (ip), vehicle: saline with Tween-80): 99 % of control

C[CH2][Ge]([CH2]C)[CH2]C.C[CH2][Ge]([CH2]C)[O]C
T/C [1]: 106 % of control | T/C [2]: 92 % of control | T/C (dose: 200.0 mg/kg/injection, schedule: Q01DX009 (ip), vehicle: saline): 92 % of control

CCOC(=O)/C(C#N)=C/NCC1CC1
T/C [3]: 102 % of control | T/C [4]: 98 % of control | T/C [5]: 98 % of control

CCOC(=O)C(Nc1cc([N+](=O)[O-])ccc1C(=O)N1CCCCC1)(C(=O)OCC)N1CCCCC1
T/C [3]: 96 % of control | T/C [4]: 92 % of control | T/C [5]: 89 % of control

O=C1CCCCCC1c1ccccc1 (stereo not given)
T/C (dose: 100.0 mg/kg/injection, schedule: Q04DX003 (ip), vehicle: saline with Tween-80): 104 % of control | T/C (dose: 200.0 mg/kg/injection, schedule: Q04DX003 (ip), vehicle: saline with Tween-80): 104 % of control | T/C (dose: 400.0 mg/kg/injection, schedule: Q04DX003 (ip), vehicle: saline with Tween-80): 109 % of control

Clc1ccc2c(cnc3ccccc32)n1
T/C (dose: 12.5 mg/kg/injection, schedule: Q04DX002 (ip), vehicle: saline with Tween-80): 102 % of control | T/C (dose: 25.0 mg/kg/injection, schedule: Q04DX002 (ip), vehicle: saline with Tween-80): 102 % of control | T/C (dose: 50.0 mg/kg/injection, schedule: Q04DX002 (ip), vehicle: saline with Tween-80): 101 % of control

CC(=O)C(C(C)=O)C(C(C)=O)C(C)=O.[Cu]
T/C (dose: 1.5 mg/kg/injection, schedule: Q01DX005 (ip), vehicle: saline with Tween-80): 110 % of control | T/C (dose: 3.0 mg/kg/injection, schedule: Q01DX005 (ip), vehicle: saline with Tween-80): 107 % of control | T/C (dose: 6.0 mg/kg/injection, schedule: Q01DX005 (ip), vehicle: saline with Tween-80): 99 % of control | T/C (dose: 6.25 mg/kg/injection, schedule: Q01DX005 (ip), vehicle: saline with Tween-80): 104 % of control

Cc1nc2cc[nH]n2c(=O)c1CCc1ccccc1
T/C [6]: 90 % of control | T/C [7]: 88 % of control

CCC(C(=O)N(C)C)n1nc(Br)c(Br)c1C (stereo not given)
T/C (dose: 100.0 mg/kg/injection, schedule: Q04DX003 (ip), vehicle: Klucel (hydroxypropylcellulose) (HPC)): 97 % of control | T/C (dose: 200.0 mg/kg/injection, schedule: Q04DX003 (ip), vehicle: Klucel (hydroxypropylcellulose) (HPC)): 95 % of control

O=S(=O)(N1CCCCC1)n1nnc2cc3ccccc3cc21
T/C (dose: 50.0 mg/kg/injection, schedule: Q01DX009 (ip), vehicle: acetone): 98 % of control | T/C (dose: 100.0 mg/kg/injection, schedule: Q01DX009 (ip), vehicle: acetone): 97 % of control | T/C (dose: 200.0 mg/kg/injection, schedule: Q01DX009 (ip), vehicle: acetone): 97 % of control

COC(=O)c1cc(-c2ccc(OC)cc2)c2c(=O)n(-c3ccccc3)[nH]c2n1
T/C [6]: 101 % of control | T/C [7]: 99 % of control | T/C [8]: 94 % of control

O=C(NC(Cc1ccccc1)C(=O)O)c1ccc([N+](=O)[O-])cc1 (stereo not given)
T/C (dose: 25.0 mg/kg/injection, schedule: Q01DX009 (ip), vehicle: other): 97 % of control | T/C (dose: 50.0 mg/kg/injection, schedule: Q01DX009 (ip), vehicle: other): 89 % of control | T/C (dose: 100.0 mg/kg/injection, schedule: Q01DX009 (ip), vehicle: other): 104 % of control

O=C(COc1ccc(Cl)cc1Cl)N1CCNC1=O
T/C [9]: 103 % of control | T/C [10]: 98 % of control | T/C (dose: 200.0 mg/kg/injection, schedule: Q01DX009 (ip), vehicle: Klucel (hydroxypropylcellulose) (HPC)): 97 % of control

O=C(CC(=O)N1CCN(c2ccccn2)CC1)N1CCN(c2ccccn2)CC1
T/C [1]: 101 % of control | T/C [2]: 102 % of control

O=C1c2cc3c(cc2C(=O)c2cc(-c4ccccc4)c(-c4ccccc4)cc21)OCO3
T/C [6]: 92 % of control | T/C [7]: 100 % of control | T/C [8]: 98 % of control and 102 % of control

Cc1cc(C)nc(NS(=O)(=O)c2ccc(NC(=O)Nc3ccc([N+](=O)[O-])cc3Cl)cc2)n1
T/C [9]: 94 % of control | T/C [10]: 86 % of control
